The source of these data is patent US7902198B2, “Crystalline aripiprazole solvates” (Synthon BV, priority 2004, dated 2011).

The conditions of data set [1]: as taught in WO 03/26659, cited from earlier work.
Data set [2] is described as follows: Solid-state stability upon storage at room temperature. It counts as physicochemical. Particulars: hemi-ethanolate for at least one month, methanolate prolonged storage. From the text:
In practice, the molar ratio between aripiprazole and ethanol moieties in the isolated product is from 1:0.4 to 1:0.6, preferably 1:0.45 to 1:0.6.

The nature of data set [3]: Solid-state stability towards thermal energy, milling and forced sieving. Particulars: for change of crystalline structure during milling: milling (Example 7: ball mill 1 minute, IR and XRPD).

Take `O=C1CCc2ccc(OCCCCN3CCN(c4cccc(Cl)c4Cl)CC3)cc2N1` [Anhydrous Form B, 7-[4-[4-(2,3-dichlorophenyl)-1-piperazinyl]butoxy]-3,4-dihydrocarbostyril]: the water uptake entry in data set [1] (in 24 hours) is given as “less than 0.4%”.

On to `O=C1CCc2ccc(OCCCCN3CCN(c4cccc(Cl)c4Cl)CC3)cc2N1` [Aripiprazole hemi-ethanolate, 7-[4-[4-(2,3-dichlorophenyl)-1-piperazinyl]butoxy]-3,4-dihydrocarbostyril], for which, in data set [2], the stability upon storage result is given as “reasonably stable”. In data set [3], the “stability towards thermal energy, including milling” value is listed as “rather unstable”.

Regarding `O=C1CCc2ccc(OCCCCN3CCN(c4cccc(Cl)c4Cl)CC3)cc2N1` [Example 5], the “effect of forced sieving on the crystal structure” value in data set [3] (pressed through a 100 μm sieve, IR, XRPD) is “no detectable effect on the crystal structure”.

For the molecule `O=C1CCc2ccc(OCCCCN3CCN(c4cccc(Cl)c4Cl)CC3)cc2N1` [Example 7], in data set [3], the “change of crystalline structure during milling” value was “crystal structure has not been changed”.

Consider `O=C1CCc2ccc(OCCCCN3CCN(c4cccc(Cl)c4Cl)CC3)cc2N1` [Type I aripiprazole, 7-[4-[4-(2,3-dichlorophenyl)-1-piperazinyl]butoxy]-3,4-dihydrocarbostyril], for which the hygroscopicity entry in data set [1] is listed as “significantly hygroscopic”.

With `O=C1CCc2ccc(OCCCCN3CCN(c4cccc(Cl)c4Cl)CC3)cc2N1` [aripiprazole methanolate, 7-[4-[4-(2,3-dichlorophenyl)-1-piperazinyl]butoxy]-3,4-dihydrocarbostyril], in data set [2], the stability upon storage entry is on record as “more stable upon prolonged storage at room temperature than the hemi-ethanolate”. For the same molecule, the “change of crystalline structure during milling” value in data set [3] is on record as “does not change its crystalline structure”.
